Experimental data taken from patent publication US12358904B2, “Inhibitors of TYK2” (Atomwise Inc., priority 2023, dated 2025).

Assays:
TYK2-JH2 = biological target: T1, TYK2-JH2 (Homo sapiens, UniProt P29597); assay: TYK2-JH2 HTRF binding assay (ligand efficiency); conditions: calculated from IC50 of the TYK-JH2 binding assay (Equation 1)
T1 construct: TYK JH2 enzyme mix (ChemPartnec CP20210818A-BV); purchased ChemPartner CP20210818A-BV
Protocol: The following example describes the TYK2-JH2 HTRF binding assay used to determine the ligand efficiency of the TYK2 inhibitors.
To calculate ligand efficiency, Equation 1 is applied:
[formula] in which IC50 comes from the binding assay used to determine compound potency.
TYK JH2 enzyme mix (ChemPartnec CP20210818A-BV), tracer (ChemPartnec CP-0029472-051) and mAb Anti-6HIS Tb cryptate Gold (Cisbio: Cat No. 61H12TLA) mix were prepared in assay buffer (10 mM MgCl2, 20 mM HEPES pH 7.5, 0.01% Triton X-100, 1 mM DTT). Compounds diluted in DMSO (Final Concentrations 0.1 to 0.000005 [μM]) and enzyme mix (0.5 nM Final Concentration) were added to 384 well plates, briefly centrifuged and incubated at room temperature for 10 minutes. After incubation, tracer mix (Tracer-35 nM final concentration); (Mab Anti-6HIS Tb cryptate Gold-0.5× final)) was added, briefly centrifuged then incubate at room temperature 60 minutes. After incubation, plates were read by Envision TR-FRET (Ex340/Em495/520) protocol (PerkinElmer-Envision 2104 multilabel plate reader).

IL-12/pSTAT4 = assay: IL-12 induced pSTAT4 assay in NK-92 cells; type: cell-based; conditions: Homo sapiens, NK92, IL-12 stimulation, read-out: Cellular potency (IL-12/pSTAT4)
Protocol: The following example describes the IL-12 induced pSTAT4 assay used to determine the cellular potency (IL-12/pSTAT4) of the TYK2 inhibitors.
NK-92 cells (human natural killer lymphoma cell line) were cultured in MEM α, nucleosides (Life Technologies, 22571020) 12.5% heat inactivated FBS (Dominique Dutscher, S1810), 12.5% heat inactivated Horse serum (Life Technologies, 26050088) and 1% Penicillin-Streptomycin (Life Technologies, 15140122), 5 ng/mL human IL-2 (R&D systems, 202-II/CF), 0.2 mM inositol (Sigma, PHR1351 lot LRAC4118), 0.1 mM β-mercaptoethanol (Life Technologies, 31350010), and 0.02 mM folic acid (Sigma, F8758).
NK-92 cells were starved overnight in starvation medium (Opti-MEM (ThermoFisher, 11058-021), 10% charcoal stripped FBS (ThermoFisher 12676-029), and 1% Penicillin (100U/ml)-Streptomycin (100 μg/ml) (ThermoFisher, ref 15140122)), then plated in a 96-well tissue culture plate (20K cells/well) prior to pre-incubation with test compounds (Final Concentration [nM] 1000 to 0.05) for 30 minutes at 37° C. Cells were stimulated with IL-12 (Final Concentration l0 ng/ml) for 30 minutes at 37° C., and terminated by addition of lysis buffer (MSD K150PAD-2). pSTAT4 (Tyr693) was detected using the Mesa Scale Discovery platform (MSD K150PAD-2), according to manufacturer's instruction. Briefly, cell lysates were added to pre-blocked plates and incubated for 1 hour at room temperature. Plates were washed and incubated with detection antibody for 1 hour at room temperature. Plates were washed and Read Buffer was added prior to measurement on the MSD (1300 MSD Quickplex SQ 120).

T1 sequence (P29597 589-875 limits assumed): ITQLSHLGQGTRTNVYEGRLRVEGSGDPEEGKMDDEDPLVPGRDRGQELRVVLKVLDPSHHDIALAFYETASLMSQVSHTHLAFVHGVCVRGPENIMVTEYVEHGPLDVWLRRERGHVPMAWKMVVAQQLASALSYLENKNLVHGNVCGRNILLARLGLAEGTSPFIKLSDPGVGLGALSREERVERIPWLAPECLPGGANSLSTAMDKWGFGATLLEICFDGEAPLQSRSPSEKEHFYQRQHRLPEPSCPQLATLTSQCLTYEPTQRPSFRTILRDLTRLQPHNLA

Row | Structure (SMILES) | Ligand Efficiency (TYK2-JH2) | IC50 (IL-12/pSTAT4) [nM]
1 | CS(=O)(=O)c1ccccc1Nc1cc(Nc2ccc(C3(NC4COC4)CC3)cn2)ncn1 [Compound 41, N^4-(2-(methylsulfonyl)phenyl)-N^6-(5-(1-(oxetan-3-ylamino)cyclopropyl)130yridine-2-yl)pyrimidine-4,6-diamine] | †† (††: 0.37-0.39) | 100 to 1000
2 | CS(=O)(=O)c1ccccc1Nc1cc(Nc2ccc(N3CCOCC3)cn2)ncn1 [Compound 42, N^4-(2-(methylsulfonyl)phenyl)-N^6-(5-morpholinopyridin-2-yl) pyrimidine-4,6-diamine] | ††† (†††: >0.39) | 100 to 1000
3 | CS(=O)(=O)c1ccccc1Nc1cc(Nc2ccc(C(=O)NC3CCOC3)cn2)ncn1 (stereo not drawn) [Compound 43, 6-(6-(2-(methylsulfonyl)phenylamino)pyrimidin-4-ylamino)-N-(tetrahydrofuran-3-yl)nicotinamide] | †† (††: 0.37-0.39) | > 1000
4 | Cc1nccc(Nc2cc(Nc3ccccc3C(N)=O)ncn2)n1 [Compound 48, 2-((6-((2-methylpyrimidin-4-yl)amino)pyrimidin-4-yl)amino) benzamide] | ††† (†††: >0.39) | 100 to 1000
5 | Cc1cccc(Nc2cc(Nc3cccnc3C(N)=O)ncn2)n1 [Compound 50, 3-((6-((6-methylpyridin-2-yl)amino)pyrimidin-4-yl)amino) picolinamide] | ††† (†††: >0.39) | 100 to 1000
6 | Cc1cccc(Nc2cc(Nc3ccncc3C(N)=O)ncn2)n1 [Compound 51, 4-((6-((6-methylpyridin-2-yl)amino)pyrimidin-4-yl)amino) nicotinamide] | ††† (†††: >0.39) | > 1000
7 | Cc1cccc(Nc2cc(Nc3ncccc3C(N)=O)ncn2)n1 [Compound 52, 2-((6-((6-methylpyridin-2-yl)amino)pyrimidin-4-yl)amino) nicotinamide] | ††† (†††: >0.39) | 100 to 1000
8 | C[C@H]1COCCN1c1ccc(Nc2cc(Nc3ccccc3S(C)(=O)=O)ncn2)nc1 [Compound 54, (S)—N^4-(5-(3-methylmorpholino)144yridine-2-yl)-N^6-(2-(methylsulfonyl)phenyl)pyrimidine-4,6-diamine] | † (†: <0.37) | > 1000
9 | Cc1ccnc(Nc2cc(Nc3ccccc3C(N)=O)ncn2)n1 [Compound 58, 2-(6-(4-methylpyrimidin-2-ylamino)pyrimidin-4-ylamino)benzamide] | ††† (†††: >0.39) | > 1000
10 | Cc1cccc(Nc2cc(Nc3cccnc3S(C)(=O)=O)ncn2)n1 [Compound 59, N^4-(6-methylpyridin-2-yl)-N^6-(2-(methylsulfonyl)149yridine-3-yl) pyrimidine-4,6-diamine] | ††† (†††: >0.39) | > 1000
11 | Cc1cccc(Nc2cc(Nc3ccncc3S(C)(=O)=O)ncn2)n1 [Compound 60, N^4-(6-methylpyridin-2-yl)-N^6-(3-(methylsulfonyl)151yridine-4-yl) pyrimidine-4,6-diamine] | ††† (†††: >0.39) | > 1000
12 | Cc1cccc(Nc2cc(Nc3cnccc3C(N)=O)ncn2)n1 [Compound 61, 3-((6-((6-methylpyridin-2-yl)amino)pyrimidin-4-yl)amino) isonicotinamide] | ††† (†††: >0.39) | 100 to 1000
13 | COc1cc(Nc2cc(Nc3ncccc3S(C)(=O)=O)ncn2)ncc1NC1(C)COC1 [Compound 62] | †† (††: 0.37-0.39) | > 1000
14 | Cc1ccnc(Nc2cc(Nc3ccccc3P(C)(C)=O)ncn2)c1 [Compound 63, N^4-(2-(dimethylphosphoryl)phenyl)-N^6-(4-methylpyridin-2-yl) pyrimidine-4,6-diamine] | ††† (†††: >0.39) | 100 to 1000
15 | CS(=O)(=O)c1cccnc1Nc1cc(Nc2ncccc2F)ncn1 [Compound 64, N^4-(3-fluoropyridin-2-yl)-N^6-(3-(methylsulfonyl)154yridine-2-yl) pyrimidine-4,6-diamine] | ††† (†††: >0.39) | > 1000
16 | COc1ccnc(Nc2cc(Nc3cccc(C)n3)ncn2)c1S(C)(=O)=O [Compound 65, N^4-(4-methoxy-3-(methylsulfonyl)155yridine-2-yl)-N^6-(6-methylpyridin-2-yl)pyrimidine-4,6-diamine] | ††† (†††: >0.39) | > 1000
17 | Cn1ccc(Nc2cc(Nc3ccccc3S(C)(=O)=O)ncn2)n1 [Compound 66, N^4-(1-methyl-1H-pyrazol-3-yl)-N^6-(2-(methylsulfonyl)phenyl) pyrimidine-4,6-diamine] | ††† (†††: >0.39) | > 1000
18 | Cn1ccc(Nc2cc(Nc3ccccc3C(N)=O)ncn2)n1 [Compound 67, 2-((6-((1-methyl-1H-pyrazol-3-yl)amino)pyrimidin-4-yl)amino)benzamide] | ††† (†††: >0.39) | > 1000
19 | Cc1cccnc1Nc1cc(Nc2ccccc2C(N)=O)ncn1 [Compound 68, 2-((6-((3-methylpyridin-2-yl)amino)pyrimidin-4-yl)amino) benzamide] | ††† (†††: >0.39) | > 1000
20 | CS(=O)(=O)c1ccccc1Nc1cc(NC(=O)C2CC2)ncn1 [Compound 69, N^4-(cyclopropylcarbonyl)-N^6-(2-(methylsulfonyl)phenyl)pyrimidine-4,6-diamine] | ††† (†††: >0.39) | > 1000
21 | COc1ccc(Nc2cc(NC(=O)C3CC3)ncn2)c(C(N)=O)c1 [Compound 70, 2-((6-(cyclopropanecarboxamido)pyrimidin-4-yl)amino)-5-methoxy benzamide] | ††† (†††: >0.39) | > 1000
22 | Cc1cccc(Nc2cc(Nc3ncccc3CS(C)(=O)=O)ncn2)n1 [Compound 71, N^4-(6-methylpyridin-2-yl)-N^6-(3-((methylsulfonyl)methyl) 162yridine-2-yl)pyrimidine-4,6-diamine] | ††† (†††: >0.39) | > 1000
23 | Cn1cc(-c2ccnc(Nc3cc(Nc4ccc(NC5(C)COC5)cn4)ncn3)c2S(C)(=O)=O)cn1 [Compound 72, N^4-(4-(1-methyl-1H-pyrazol-4-yl)-3-(methylsulfonyl)164yridine-2-yl)-N^6-(5-(3-methyloxetan-3-ylamino)164yridine-2-yl)pyrimidine-4,6-diamine] | † (†: <0.37) | > 1000
24 | CC1(Nc2cnc(Nc3cc(Nc4ncccc4S(C)(=O)=O)ncn3)cn2)COC1 [Compound 74, N^4-(5-(3-methyloxetan-3-ylamino)pyrazin-2-yl)-N^6-(3-(methylsulfonyl)167yridine-2-yl)pyrimidine-4,6-diamine] | ††† (†††: >0.39) | 100 to 1000
25 | COc1ccnc(Nc2cc(Nc3ccc(C(C)N4CC5(COC5)C4)cn3)ncn2)c1S(C)(=O)=O (stereo not drawn) [Compound 76, N^4-(5-(1-(2-oxa-6-azaspiro[3.3]heptan-6-yl)ethyl)170yridine-2-yl)-N^6-(4-methoxy-3-(methylsulfonyl)170yridine-2-yl)pyrimidine-4,6-diamine] | † (†: <0.37) | 100 to 1000
26 | Cc1cc(Nc2cc(Nc3ncccc3S(C)(=O)=O)ncn2)nnc1C(C)N1CC2(COC2)C1 (stereo not drawn) [Compound 77, N^4-(6-(1-(2-oxa-6-azaspiro[3.3]heptan-6-yl)ethyl)-5-methylpyri 172yridi-3-yl)-N^6-(3-(methylsulfonyl)172yridine-2-yl)pyrimidine-4,6-diamine] | †† (††: 0.37-0.39) | > 1000
27 | CC(c1ccc(Nc2cc(Nc3ncc(C4COC4)cc3S(C)(=O)=O)ncn2)nc1)N1CC2(COC2)C1 (stereo not drawn) [Compound 78, N^4-(5-(1-(2-oxa-6-azaspiro[3.3]heptan-6-yl)ethyl)175yridine-2-yl)-N^6-(3-(methylsulfonyl)-5-(oxetan-3-yl)175yridine-2-yl)pyrimidine-4,6-diamine] | † (†: <0.37) | > 1000
